{"source": "paper PMC2661360", "about": "(PLoS ONE, 2009)", "key": {"Sap5 [1]": {"test_system": "Sap5", "test": "Sap5 protease", "conditions": "C. albicans, up to 2 h"}, "Sap9 [2]": {"test_system": "Sap9", "test": "purified recombinant Sap9 protease", "conditions": "C. albicans, up to 2 h"}, "[3]": {"test": "C. albicans cells in PBS with pepstatin A", "conditions": "37°C, up to 2 h"}, "[4]": {"test": "C. albicans whole cells (2×10^8 cells/ml) in PBS", "conditions": "Candida albicans, 37°C, up to 2 h"}, "[5]": {"test": "C. albicans whole cells (SC5314) in PBS, 2×10^8 cells/ml", "conditions": "37°C, up to 2 h"}, "C. albicans cells": {"test_system": "C. albicans cells", "test": "Inhibition of C. albicans degradation of Hst-5 by protease inhibitors", "type": "cell-based, Candida albicans", "conditions": "1 mM inhibitor in the degradation assay; SDS-PAGE (Figure 3B)"}, "proteinase K": {"target": "proteinase K (Parengyodontium album, UniProt P06873)", "sequence (P06873 106-384)": "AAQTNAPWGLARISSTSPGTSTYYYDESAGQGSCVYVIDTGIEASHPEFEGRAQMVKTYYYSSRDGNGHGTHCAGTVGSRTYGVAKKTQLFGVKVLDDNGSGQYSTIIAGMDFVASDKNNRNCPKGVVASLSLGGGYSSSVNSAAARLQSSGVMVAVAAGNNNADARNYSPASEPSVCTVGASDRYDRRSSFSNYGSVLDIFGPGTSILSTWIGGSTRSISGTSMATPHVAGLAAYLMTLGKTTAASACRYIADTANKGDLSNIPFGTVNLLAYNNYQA", "test": "Inhibition of proteinase K degradation of Hst-5 by protease inhibitors", "type": "biochemical", "parameters": "purchased Sigma (Sigma-Aldrich Chemical, St. Louis, MO)", "conditions": "1 mM inhibitor; SDS-PAGE (Figure 3A)"}, "C. albicans whole cells": {"test_system": "C. albicans whole cells", "test": "Degradation assay of Hst-5 with C. albicans whole cells", "parameters": "species or system Candida albicans", "procedure": "(§1) The C. albicans SC5314 strain, the C. albicans SAP null mutants sap1–3 triple mutant (lacking SAP1–3), sap4–6 triple mutant (lacking SAP4–6), sap9 single mutant (lacking SAP9), sap10 single mutant (lacking SAP10) and sap9,10 double mutant (lacking both SAP9 and SAP10), as well as the parent strain CAI4 (URA-) were used in these experiments, [43], [44]. Strains were grown in YPD broth (Difco Laboratories, Detroit, MI) overnight at 30°C with shaking and cells were equilibrated in fresh media to an optical density of 1.0 at OD600. High purity Hst-5, proteinase K, PMSF and pepstatin A were purchased from Sigma (Sigma-Aldrich Chemical, St. Louis, MO). Histatin-5 was reconstituted in 1 mM phosphate-buffered saline (PBS) and used at a final concentration of 150 µg/ml (within the range of physiological salivary concentration) in all experiments unless otherwise stated. All experiments were performed on at least three separate occasions.\nThe intensity of the bands on the Coomassie-stained gels was assessed by densitometric analysis using a MultiImager scanner (Bio-Rad Laboratories, Hercules California) and images analyzed with the PDQuest version 7.0 (BioRAd)."}, "[6]": {"test_system": "cell-free supernatants of C. albicans cell suspensions", "test": "Degradation assay of Hst-5 with cell-free supernatants", "parameters": "species or system Candida albicans", "conditions": "C. albicans supernatant compared to whole C. albicans cells; SDS-PAGE (Figure 3C)", "method": "Degradation assays were performed by incubating Hst-5 with 100 µl of standardized cell concentrations of the C. albicans strains in PBS for 2 h at 37°C. Unless otherwise stated, C. albicans strains were used in experiments at a cell concentration of 2×10^8 cells/ml (generating two visible bands). Protease K was used as a positive control and negative controls with peptide and no C. albicans were included. Following incubation, samples were collected, heated at 100°C to remove proteolytic activity and analyzed by sodium dodecyl sulfate polyacrylamide gel electrophoresis (SDS-PAGE). Experiments were also performed using increasing C. albicans cell densities and at different time points where samples were collected following 20, 60 and 120 minutes incubation. In addition, assays were performed using cell-free supernatants from C. albicans cell suspensions to determine whether the proteolytic substance is secreted."}, "Sap9 [7]": {"target": "T1, Sap9 (Candida albicans, UniProt Q59SU1)", "T1 sequence (Q59SU1 18-520)": "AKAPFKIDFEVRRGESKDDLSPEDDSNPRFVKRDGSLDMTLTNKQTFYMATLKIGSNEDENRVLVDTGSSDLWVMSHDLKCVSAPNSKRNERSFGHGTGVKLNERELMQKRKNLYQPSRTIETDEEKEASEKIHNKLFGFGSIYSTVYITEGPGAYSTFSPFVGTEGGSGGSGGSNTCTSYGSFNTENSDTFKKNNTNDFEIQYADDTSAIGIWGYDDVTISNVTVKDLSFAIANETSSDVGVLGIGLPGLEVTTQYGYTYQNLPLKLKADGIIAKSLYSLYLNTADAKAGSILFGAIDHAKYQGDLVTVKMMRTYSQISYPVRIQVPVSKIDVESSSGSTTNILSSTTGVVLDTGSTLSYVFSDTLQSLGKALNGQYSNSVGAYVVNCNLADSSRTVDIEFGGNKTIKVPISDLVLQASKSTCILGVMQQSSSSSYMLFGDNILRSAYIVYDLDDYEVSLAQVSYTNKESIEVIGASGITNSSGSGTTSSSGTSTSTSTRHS", "conditions": "MALDI-TOF/TOF MS peptide mapping", "text": "The recombinant proteases Sap9 and Sap10 were produced in Pichia pastoris as described previously, [45]. Briefly, P. pastoris strain GS115 was transformed with the expression plasmid pKJ113 carrying truncated SAP9 and SAP10 versions lacking signal peptide- and GPI anchor consensus- encoding sequences. Proteases were recovered from culture supernatants and purified via anion exchange chromatography. Activity of proteases was verified by using a standard fluorescence casein based assay (Molecular Probes). Purified proteases (0.05, 0.1, 0.25 and 0.5 µg) were incubated with Hst-5 for 2 h. Following, samples were processed as described above.\nSupernatants from the various degradation reactions were subjected to peptide mapping in order to determine the sequences of cleaved fragments, identify cleavage sites on the Hst-5 as well as other cleavage products that may not be visible by electrophoresis. […] Peptide samples were mixed with saturated α-cyano-4-hydroxycinnamic acid in acetonitrile∶trifluoroacetic acid 0.1% (1∶2 v/v) then measured on an Ultraflex MALDI-ToF/ToF device using flexControl 3.0 for data collection and flexAnalysis 3.0 for spectra analysis and peaklist generation (Bruker Daltonics GmbH, Germany). […]"}, "[8]": {"test_system": "C. albicans SAP null mutants", "parameters": "species or system Candida albicans", "conditions": "sap10 single mutant compared to parent strain CAI4 and SC5314 (Figure 4)", "procedure": "as §1"}, "Saccharomyces cerevisiae": {"test_system": "Saccharomyces cerevisiae", "test": "Degradation of Hst-5 by Saccharomyces cerevisiae", "conditions": "compared to C. albicans (Figure S2)"}, "Sap5 [9]": {"target": "Sap5 (Candida albicans, UniProt P43094)", "sequence (P43094 77-418)": "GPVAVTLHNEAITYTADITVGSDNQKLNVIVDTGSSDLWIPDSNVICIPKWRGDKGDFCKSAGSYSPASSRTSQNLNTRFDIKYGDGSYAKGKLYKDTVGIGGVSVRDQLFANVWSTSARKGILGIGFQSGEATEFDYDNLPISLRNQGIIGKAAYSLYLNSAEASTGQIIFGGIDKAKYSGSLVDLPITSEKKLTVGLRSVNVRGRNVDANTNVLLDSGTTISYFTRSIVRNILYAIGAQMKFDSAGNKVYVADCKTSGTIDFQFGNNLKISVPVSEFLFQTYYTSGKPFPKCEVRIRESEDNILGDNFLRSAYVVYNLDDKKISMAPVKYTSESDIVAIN", "conditions": "data not shown"}, "Sap9 [10]": {"target": "T1, Sap9", "test": "Inhibition of Sap9 degradation of Hst-5", "type": "biochemical", "parameters": "made in house; host or cells: Pichia pastoris GS115 (plasmid pKJ113)", "conditions": "purified Sap9 protease; SDS-PAGE (Figure 3D)", "text": "(§2) Following, samples were processed as described above."}, "Sap10": {"target": "Sap10 (Candida albicans, UniProt Q5A651)", "sequence (Q5A651 21-429)": "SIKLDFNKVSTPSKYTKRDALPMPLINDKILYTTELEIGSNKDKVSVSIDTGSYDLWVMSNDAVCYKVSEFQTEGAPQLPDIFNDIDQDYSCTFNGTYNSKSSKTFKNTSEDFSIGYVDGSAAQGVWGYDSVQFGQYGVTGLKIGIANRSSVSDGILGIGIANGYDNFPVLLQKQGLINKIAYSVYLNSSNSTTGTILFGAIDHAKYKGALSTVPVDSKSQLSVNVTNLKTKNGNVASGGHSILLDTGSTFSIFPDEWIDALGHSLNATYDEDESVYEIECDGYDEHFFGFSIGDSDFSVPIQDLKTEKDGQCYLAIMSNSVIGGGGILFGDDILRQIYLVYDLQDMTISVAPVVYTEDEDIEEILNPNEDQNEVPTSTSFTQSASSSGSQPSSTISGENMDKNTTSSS", "test": "Inhibition of Sap10 degradation of Hst-5", "type": "biochemical", "parameters": "made in house; host or cells: Pichia pastoris GS115 (plasmid pKJ113)", "conditions": "purified Sap10 protease; SDS-PAGE (Figure 3D)", "text": "as §2"}}, "note": "“Also recorded” adds a separate entry of the source. Square brackets hold non-standard residues; d marks the D form. Peptide text beside a SMILES is read from it. * marks the point of attachment. Sta = CC(C)C[C@H](N)[C@@H](O)CC(=O)O; Isovaleryl = CC(C)CC(=O)*"}
{"compound": "DSHAKRHHGYKRKFHEKHHSHRGY", "values": [{"measurement": "not cleaved", "setting": "Sap5 [1]", "result": "did not degrade Hst-5"}, {"measurement": "cleaved bond", "setting": "Sap9 [2]", "result": "R12-Lys13"}, {"measurement": "not cleaved", "setting": "[3]", "result": "salvaged Hst-5 from degradation"}, {"measurement": "cleaved bond", "setting": "[4]", "result": "K17-H18"}, {"measurement": "cleaved bond", "setting": "[5]", "result": "R12-Lys13; also recorded: K17-H18"}]}
{"compound": "O=S(=O)(F)Cc1ccccc1", "note": "[PMSF]", "values": [{"measurement": "inhibition of C. albicans degradation of Hst-5", "setting": "C. albicans cells", "result": "not and failed to inhibit"}, {"measurement": "inhibition of proteinase K degradation of Hst-5", "setting": "proteinase K", "result": "inhibition of degradation; also recorded: inhibited"}]}
{"compound": "C[C@H](NC(=O)[C@H](Cc1cnc[nH]1)NC(=O)[C@H](CO)NC(=O)[C@@H](N)CC(=O)O)C(=O)N[C@@H](CCCCN)C(=O)N[C@@H](CCCNC(=N)N)C(=O)N[C@@H](Cc1cnc[nH]1)C(=O)N[C@@H](Cc1cnc[nH]1)C(=O)NCC(=O)N[C@@H](Cc1ccc(O)cc1)C(=O)N[C@@H](CCCCN)C(=O)N[C@@H](CCCNC(=N)N)C(=O)N[C@@H](CCCCN)C(=O)N[C@@H](Cc1ccccc1)C(=O)N[C@@H](Cc1cnc[nH]1)C(=O)N[C@@H](CCC(=O)O)C(=O)N[C@@H](CCCCN)C(=O)N[C@@H](Cc1cnc[nH]1)C(=O)N[C@@H](Cc1cnc[nH]1)C(=O)N[C@@H](CO)C(=O)N[C@@H](Cc1cnc[nH]1)C(=O)N[C@@H](CCCNC(=N)N)C(=O)NCC(=O)N[C@@H](Cc1ccc(O)cc1)C(=O)O", "note": "[Hst-5, Histatin-5]", "values": [{"measurement": "degradation of Hst-5 by C. albicans", "setting": "C. albicans whole cells; 1×10^2 cells/ml and below, physiological concentrations of Hst-5", "result": "unable to degrade"}, {"measurement": "degradation of Hst-5 by C. albicans", "setting": "C. albicans whole cells; 1×10^6 cells/ml, 2 h 37°C, SDS-PAGE", "result": "no degradation"}, {"measurement": "degradation of Hst-5 by C. albicans", "setting": "C. albicans whole cells; 2×10^9 cells/ml, 2 h 37°C, SDS-PAGE", "result": "significant degradation"}, {"measurement": "degradation of Hst-5 by C. albicans over time", "setting": "C. albicans whole cells; 20 mins incubation at 37°C, SDS-PAGE, lower weight product", "result": "Minor degradation"}, {"measurement": "degradation of Hst-5 by C. albicans over time", "setting": "C. albicans whole cells; 1 h and 2 h incubation at 37°C, SDS-PAGE", "result": "significantly increasing level of degradation"}, {"measurement": "time in which C. albicans degrades Hst-5", "setting": "C. albicans whole cells; C. albicans cells, 37°C, PBS, SDS-PAGE (Figure 2A)", "result": "≤ 20", "unit": "min"}, {"measurement": "degradation of Hst-5 by C. albicans cells", "setting": "C. albicans whole cells; Hst-5 150 µg/ml in PBS with 100 µl C. albicans cells (2×10^8 cells/ml unless stated), 2 h 37°C, SDS-PAGE, densitometry, at least three occasions", "result": "efficiently and rapidly degrade"}, {"measurement": "level of degradation versus Hst-5 concentration", "setting": "C. albicans whole cells; Hst-5 50–200 µg/ml, data not shown", "result": "inversely proportional to Hst-5 concentration"}, {"measurement": "degradation of Hst-5 by cell-free supernatants", "setting": "[6]", "result": "significantly less degradation; also recorded: Minimal degradation"}, {"measurement": "cleavage site of Sap9 on Hst-5", "setting": "Sap9 [7]", "result": "Lys13"}, {"measurement": "degradation of Hst-5 by sap10 mutant", "setting": "[8]", "result": "some degree of inhibition"}, {"measurement": "degradation of Hst-5 by C. glabrata", "setting": "Candida glabrata", "result": "significant enhanced degradation"}, {"measurement": "degradation of Hst-5 by S. cerevisiae", "setting": "Saccharomyces cerevisiae", "result": "significant enhanced degradation"}, {"measurement": "degradation of Hst-5 by Sap5 purified protease", "setting": "Sap5 [9]", "result": "did not degrade"}]}
{"compound": "CC(C)CC(=O)N[C@H](C(=O)N[C@H](C(=O)N[C@@H](CC(C)C)[C@@H](O)CC(=O)N[C@@H](C)C(=O)N[C@@H](CC(C)C)[C@@H](O)CC(=O)O)C(C)C)C(C)C", "note": "[pepstatin A] (Isovaleryl-VV[Sta]A[Sta]-OH)", "values": [{"measurement": "inhibition of C. albicans degradation of Hst-5", "setting": "C. albicans cells", "result": "inhibition of C. albicans degradation; also recorded: resulted in inhibition of degradation; also recorded: salvaged Hst-5 from degradation"}, {"measurement": "inhibition of Sap9 degradation of Hst-5", "setting": "Sap9 [10]", "result": "inhibition of degradation; also recorded: inhibited"}, {"measurement": "inhibition of Sap10 degradation of Hst-5", "setting": "Sap10", "result": "inhibition of degradation; also recorded: inhibited"}]}
